The source of these data is patent US7943795B2, “Vitamin D receptor modulators” (Eli Lilly and Company, priority 2004, dated 2011).

For assay [1], the system named is KERtr cells (Human skin keratinocyte). Kind of assay: Keratinocyte proliferation assay. Format: cell-based. The conditions noted are these: 72 hr, BrdU incorporation, read-out: Keranocyte Proliferation IC50. On the procedure:
6. The keratinocyte proliferation assay is described in the “Assay” section of the Description, infra.
The Keratinocyte Proliferation Assay
This Assay is indicative for the treatment of psoriasis. An acceptable test result is IC50 value of less than or equal to 300 nM. Preferred assay results are IC50 values of less than 100 nM.
KERtr cells (Human skin keratinocyte are transformed with a retrovirus vector, obtained from ATCC, then are plated in 96-well flat-bottomed plates (3000 cells/well) in 100 μl keratinocyte serum free medium supplemented with bovine pituitary extract in the absence of EGF (Life Technologies, Rockville, Md.) and are incubated at 37° C. for two days. The cells are treated with various concentrations of VDR ligands (ten-fold serial dilution from 10,000 nM to 0.1 nM in triplicate), dissolved in 100 μl keratinocyte serum free medium supplemented with bovine pituitary extract in the absence of EGF and are incubated at 37° C. for 72 hr. BrdU (5-bromo-2′-deoxyuridine) incorporation is analyzed as a measure of DNA replication (Cell proliferation ELISA kit, Roche Diagnostics, Indianapolis, Ind.) and absorbance is measured at […]. Potency values (IC50) values were determined as the concentration (nM) of compound that elicited a half-maximal response.
On the technique in general: Dividing cells build labelled thymidine or BrdU into new DNA.

The subject of assay [2] is IL-10 production in PBMCs. Kind of assay: IL-10 induction assay. The class given is cell-based. The conditions noted are these: PBMC; TPA/PHA stimulated human PBMCs, IL-10 in supernatant by immunoassay. The source says:
7. The IL-10 induction assay is described in the “Assay” section of the Description, infra.
The IL-10 Induction Assay
This is an in vitro efficacy assay for psoriasis, abscess and adhesion. Psoriasis involves both keratinocytes and immune cells. IL-10 is a unique cytokine because it is anti-inflammatory and immunosuppressive. This assay tells us whether a VDRM is able to function as an agonist in PBMCs (primary blood mononuclear cells) or not. A lower EC50 value is desirable in this assay since a compound with a lower EC50 value will be a better agonist in PBMCs. An acceptable test result is an EC50 value of less than 200 nM. Preferred assay results are EC50 values of less than 100 nM.
Isolation of Peripheral Blood Mononuclear Cells (PBMCs):
Collect 50 ml of human blood and dilute with media, RPMI-1640. Add diluted blood to sterile tubes with ficol. Centrifuge the tubes. Discard the top layer and collect the cells from middle layer. Divide all cells into four tubes and add media. Centrifuge. Aspirate off media and resuspend the cells. Collect all cells. Centrifuge at 1200 rpm for 10 m. Resuspend the cells in RPMI-1640 with 2% FBS and then count cells.
Stimulation of PBMC: Prepare TPA in DMSO. Dissolve PHA in water. Plate TPA/PHA treated PBMCs in well plates. Incubate the cells.
Treatment: Prepare all compound dilutions in plain RPMI-1640 media. Add diluted compound and incubate. Sample Collection and assay: Remove all the cells by centrifugation and assay the supernatant for IL-10 by immunoassay using anti-human IL-10 antibody coated beads, as described by the manufacturer (Linco Research Inc., St. Charles, Mo.).

The structures appear in SMILES notation.

Take `CCC(CC)(c1ccc(OCC(O)C(C)(C)C)c(C)c1)c1ccc2cc(C(=O)O)ccc2c1` (racemic) [Ex. 2, 6-{1-Ethyl-1-[4-(2-hydroxy-3,3-dimethyl-butoxy)-3-methyl-phenyl]-propyl}-naphthalene-2-carboxylic acid]: the IC50 worked out at 47 nM in assay [1] and 49 nM in assay [2].
